The assay deals with SKM MF. The experiment in a line: SKM MF AC1.4: ATPase screen of skeletal sarcomeric proteins with PK/LDH coupled enzyme system. The assay is classed as biochemical. Conditions: for SKM MF AC1.4 (μM): median value (footnote †). Also noted: AC1.4 Median: unit not given here. The method, then:
For example, test compounds can be assayed in a highly parallel fashion by using multiwell plates by placing the compounds either individually in wells or testing them in mixtures. Assay components including the target protein complex, coupling enzymes and substrates, and ATP can then be added to the wells and the absorbance or fluorescence of each well of the plate can be measured with a plate reader.
In some embodiments, the method uses a 384 well plate format and a 25 μL reaction volume. A pyruvate kinase/lactate dehydrogenase coupled enzyme system (Huang T G and Hackney D D. (1994) J Biol Chem 269(23):16493-501) can be used to measure the rate of ATP hydrolysis in each well. As will be appreciated by those in the art, the assay components are added in buffers and reagents. The incubation periods can be optimized to give adequate detection signals over the background. The assay can be done in real time giving the kinetics of ATP hydrolysis which increases the signal to noise ratio of the assay.
Just prior to screening, the actin, tropomyosin, and troponin complex are mixed together in the desired ratio (e.g., 7:1:1) to achieve maximal calcium regulation of the actin filament. The screen is conducted at a pCa=6.5. This calcium concentration is in the physiological range during muscle contraction.
To measure the generation of ADP during the reaction, a pyruvate kinase/lactate dehydrogenase/NADH coupled enzyme system (PK/LDH) is added to the actin. The myosin is kept separately. The plates are read in real time so that kinetic curves are obtained. These compounds are in DMSO and were already spotted onto the bottoms of 384 well plates at 10 to 40 μg/ml final concentration.

As for “7-[(dimethylamino)methyl]-6-chloro-1-(ethylpropyl)benzimidazol-2-ol”, the “AC1.4 Median” value amounted to 13.3270.

Turning to “1-(ethylpropyl)imidazo[4,5-b]pyridine-2,6-diol”, the “AC1.4 Median” value stood at 7.8719. On the same count and under the same terms, then `CCC(CC)n1c(O)nc2ncc(Cl)c(/C=N\OC(C)(C)C)c21` [7-[(1Z)-2-(tert-butoxy)-2-azavinyl]-6-chloro-1-(ethylpropyl)imidazo[4,5-b]pyridin-2-ol], with 19.5317. In the case of “6-chloro-1-(ethylpropyl)-7-(hydroxyethyl)imidazo[4,5-b]pyridin-2-ol”, the “AC1.4 Median” value was determined as 30.7467. As for `CCc1cnc2nc(O)n(C(CC)CC)c2c1` [6-ethyl-1-(pentan-3-yl)-1H-imidazo[4,5-b]pyridin-2-ol], the “AC1.4 Median” value is 41.9678 and the “SKM MF AC1.4 (μM)” value is 41.9678^† μM. In the case of `CCC(CC)n1c(O)nc2ncc(Cl)c(/C=N/OCC(C)C)c21` [7-[(1E)-2-(2-methylpropoxy)-2-azavinyl]-6-chloro-1-(ethylpropyl)imidazo[4,5-b]pyridin-2-ol], the “AC1.4 Median” value came out at 11.4532.

As for “1-(ethylpropyl)-6-prop-1-ynylimidazo[4,5-b]pyridin-2-ol”, the “AC1.4 Median” value was found to be 27.8274.

In the case of `CC(n1c(O)nc2ncc(Cl)cc21)C(C)(C)C` (stereo not drawn) [6-chloro-1-(1,2,2-trimethylpropyl)imidazo[4,5-b]pyridin-2-ol], the “AC1.4 Median” value is on record as 28.0697. Consider `Oc1nc2ncc(Cl)cc2n1[C@H](Cc1ccccn1)CN1CCOCC1` [1-[(1R)-2-morpholin-4-yl-1-(2-pyridylmethyl)ethyl]-6-chloroimidazo[4,5-b]pyridin-2-ol], for which the “AC1.4 Median” value is 10.9895. As to `CCC(CC)n1c(O)nc2ncc(Cl)c(C#N)c21` [6-chloro-1-(ethylpropyl)-2-hydroxyimidazo[4,5-b]pyridine-7-carbonitrile], the “AC1.4 Median” value worked out at 1.0215. On the same count and under the same terms, the result for `CCC(CC)n1c(O)nc2ncc(Cl)c(/C=N\OCC(C)C)c21` [7-[(1Z)-2-(2-methylpropoxy)-2-azavinyl]-6-chloro-1-(ethylpropyl)imidazo[4,5-b]pyridin-2-ol] reads 22.4644; that for `CC(C)C[C@H](CO)n1c(O)nc2ncc(Cl)cc21` [1-[(1R)-2-hydroxy-1-(2-methylpropyl)ethyl]-6-chloroimidazo[4,5-b]pyridin-2-ol], 5.6431.

With `OC[C@@H](C1CCCCC1)n1c(O)nc2ncc(Cl)cc21` [1-((1R)-1-cyclohexyl-2-hydroxyethyl)-6-chloroimidazo[4,5-b]pyridin-2-ol], the “AC1.4 Median” value was found to be 37.7104.

Take “6-chloro-1-(methylethyl)imidazo[4,5-b]pyridin-2-ol”: the “AC1.4 Median” value is given as 25.8589. Same read-out and setting: then `C=C(C)c1c(Cl)cnc2nc(O)n(C(CC)CC)c12` [6-chloro-1-(ethylpropyl)-7-(1-methylvinyl)imidazo[4,5-b]pyridin-2-ol], with 1.8005. On to `CCC(CC)Cn1c(O)nc2ncc(Cl)cc21` [6-chloro-1-(2-ethylbutyl)-1H-imidazo[4,5-b]pyridin-2-ol], for which the “AC1.4 Median” value was determined as 25.2370 and the “SKM MF AC1.4 (μM)” value is listed as 25.237^† μM. The like results for `CCC(CC)n1c(O)nc2ncc(F)cc21` [6-fluoro-1-(pentan-3-yl)-1H-imidazo[4,5-b]pyridin-2-ol] were, in that order, 12.9347 and 12.9347^† μM. `CCC(CC)n1c(O)nc2ncc(Br)cc21` [6-bromo-1-(pentan-3-yl)-1H-imidazo[4,5-b]pyridin-2-ol]: the “SKM MF AC1.4” value amounted to 0.9 µM and the “AC1.4 Median” value is listed as 1.1739. As for `CC(C)(C)n1c(O)nc2ncc(Cl)cc21` [1-(tert-butyl)-6-chloroimidazo[4,5-b]pyridin-2-ol], the “AC1.4 Median” value was 9.8213. Same read-out and setting: the result for `CCC(CC)n1c(O)nc2ncc(Cl)c(C3=CCN(C(=O)OC(C)(C)C)CC3)c21` [tert-butyl 4-[6-chloro-1-(ethylpropyl)-2-hydroxyimidazo[4,5-b]pyridin-7-yl]-1,2,5,6-tetrahydropyridinecarboxylate] reads 26.7443. For `CCC(CC)n1c(O)nc2ncc(SC)cc21` [6-(methylthio)-1-(pentan-3-yl)-1H-imidazo[4,5-b]pyridin-2-ol], the “AC1.4 Median” value was 13.7960 and the “SKM MF AC1.4 (μM)” value was 13.796^† μM. In the case of `C[C@@H](c1ccccc1)n1c(O)nc2ncc(Cl)cc21` [1-((1S)-1-phenylethyl)-6-chloroimidazo[4,5-b]pyridin-2-ol], the “AC1.4 Median” value was 31.7670.

On to `CCC(CC)n1c(O)nc2ncc(C(F)(F)F)cc21` [1-(ethylpropyl)-6-(trifluoromethyl)imidazo[4,5-b]pyridin-2-ol], for which the “AC1.4 Median” value was determined as 47.6668. In the case of `CCC(CC)n1c(=O)[nH]c2ncccc21` [1-(pentan-3-yl)-1H-imidazo[4,5-b]pyridin-2(3H)-one], the “SKM MF AC1.4” value stood at 19.2 µM and the “AC1.4 Median” value was found to be 19.1998. Take `CCC(CO)n1c(O)nc2ncc(Cl)cc21` (stereo not drawn) [6-chloro-1-(1-ethyl-2-hydroxyethyl)imidazo[4,5-b]pyridin-2-ol]: the “AC1.4 Median” value was determined as 8.4752.

Turning to `CCC(CC)n1c(O)nc2ncc(Cl)c(/C=N/OCc3ccccc3)c21` [7-[(1E)-2-(phenylmethoxy)-2-azavinyl]-6-chloro-1-(ethylpropyl)imidazo[4,5-b]pyridin-2-ol], the “AC1.4 Median” value is listed as 39.7159. Turning to `CC[C@H](CN=[N+]=[N-])n1c(O)nc2ncc(Cl)cc21` [1-((1R)-3-diazo-1-ethyl-3-azaprop-3-enyl)-6-chloroimidazo[4,5-b]pyridin-2-ol], the “AC1.4 Median” value turned out to be 11.2261. For the compound `CCC(CC(C)C)n1c(O)nc2ncc(Cl)cc21` (stereo not drawn) [6-chloro-1-(1-ethyl-3-methylbutyl)imidazo[4,5-b]pyridin-2-ol], the “AC1.4 Median” value stood at 2.6422. Same read-out and setting: the result for `CC(C)CC(C)n1c(O)nc2ncc(Cl)cc21` (stereo not drawn) [1-(1,3-dimethylbutyl)-6-chloroimidazo[4,5-b]pyridin-2-ol] reads 5.7765; that for `COC(=O)N1CCN(C[C@@H](CC(C)C)n2c(O)nc3cc(Cl)cnc32)CC1` [methyl 4-[(2R)-2-(6-chloro-2-hydroxyimidazo[4,5-b]pyridinyl)-4-methylpentyl]piperazinecarboxylate], 8.3875; that for `C[C@H](c1ccccc1)n1c(O)nc2ncc(Cl)cc21` [1-((1R)-1-phenylethyl)-6-chloroimidazo[4,5-b]pyridin-2-ol], 35.2255.

Take `CCC(CC)n1c(O)nc2ncc(Cl)c(/C=N\OCc3ccccc3)c21` [7-[(1Z)-2-(phenylmethoxy)-2-azavinyl]-6-chloro-1-(ethylpropyl)imidazo[4,5-b]pyridin-2-ol]: the “AC1.4 Median” value is on record as 42.0392. Still for that read-out and setting: the result for “[1-(ethylpropyl)-6-ethynyl-2-hydroxyimidazo[4,5-b]pyridin-7-yl]-N-methylcarboxamide” reads 6.7023; that for `CC(Cn1c(O)nc2ncc(Cl)cc21)c1ccccc1` (stereo not drawn) [6-chloro-1-(2-phenylpropyl)imidazo[4,5-b]pyridin-2-ol], 22.4532; that for `CCC(CC)(Cn1c(O)nc2ncc(Cl)cc21)c1ccccc1` [6-chloro-1-(2-ethyl-2-phenylbutyl)imidazo[4,5-b]pyridin-2-ol], 11.0001.

Regarding “1-(ethylpropyl)-6-ethynyl-2-hydroxyimidazo[4,5-b]pyridine-7-carbonitrile”, the “AC1.4 Median” value is 0.1028.

These data come from patent US7851484B2, “Certain chemical entities, compositions, and methods” (Cytokinetics, Inc., priority 2007, dated 2010).
